Measurements as given in ChEMBL document CHEMBL4373734, “Overcoming imatinib resistance in chronic myelogenous leukemia cells using non-cytotoxic cell death modulators” (Eur J Med Chem, 2020).
The source made the active and inactive calls. The calls are words filed in the database; no cut-off is given here.

Tests used:
[1] = Solubility of compound in water at >20 uM; type: physicochemical; conditions: buffer
[2] = Solubility of compound in DMSO at 10 uM by microscopic analysis; type: physicochemical
[3] = Cytotoxicity against human HS5 cells assessed as cell death at 10 uM after 72 hrs by propidium iodide/Triton-X100 dye based FACS analysis
K562-IMA[r] [4] = assay: Cytotoxicity against imatinib-resistant human K562-IMA[r] cells assessed as cell death at 10 uM after 72 hrs by propidium iodide/Triton-X100 dye based FACS analysis
K562-IMA[r] [5] = assay: Induction of sensitization to imatinib-induced cytotoxicity in imatinib-resistant human K562-IMA[r] cells assessed as induction of cell death at 10 uM after 72 hrs in presence of 1 uM imatinib by propidium iodide/Triton-X100 dye based FACS analysis; type: functional
COS-7 = assay: Cytotoxicity against African green monkey COS7 cells assessed as effect on cell metabolic activity at 20 uM after 72 hrs by MTT assay; type: ADME, cell-based; conditions: chlorocebus aethiops, cos-7, 72 h
[6] = molecular target: T1, Peroxisome proliferator-activated receptor gamma (Homo sapiens) (UniProt P37231); assay: Transactivation of Gal4-fused human PPARgamma transfected in COS7 cells co-transfected with pGAL5-TK-pGL3 and pRennilla-CMV assessed as maximum intrinsic activation at 10 uM incubated for 39 hrs by dual luciferase reporter assay relative to pioglitazone; type: cell-based
T1 sequence (whole entry): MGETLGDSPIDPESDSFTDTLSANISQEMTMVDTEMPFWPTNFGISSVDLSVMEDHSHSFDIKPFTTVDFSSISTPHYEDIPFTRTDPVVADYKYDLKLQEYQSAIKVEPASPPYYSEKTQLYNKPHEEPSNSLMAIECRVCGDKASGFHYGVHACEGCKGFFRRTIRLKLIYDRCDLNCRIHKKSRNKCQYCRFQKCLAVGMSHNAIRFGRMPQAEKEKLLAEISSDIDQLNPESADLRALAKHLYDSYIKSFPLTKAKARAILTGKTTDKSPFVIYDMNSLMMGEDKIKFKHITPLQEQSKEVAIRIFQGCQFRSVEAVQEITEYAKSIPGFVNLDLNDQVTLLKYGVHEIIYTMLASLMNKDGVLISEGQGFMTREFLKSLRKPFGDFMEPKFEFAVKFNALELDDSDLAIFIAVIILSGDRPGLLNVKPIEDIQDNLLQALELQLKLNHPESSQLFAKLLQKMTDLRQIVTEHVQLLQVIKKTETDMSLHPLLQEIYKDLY

[7] = molecular target: T1, Peroxisome proliferator-activated receptor gamma (Homo sapiens); assay: Transactivation of Gal4-fused human PPARgamma transfected in COS7 cells co-transfected with pGAL5-TK-pGL3 and pRennilla-CMV assessed as maximum intrinsic activation at 20 uM incubated for 39 hrs by dual luciferase reporter assay; type: cell-based
K562 = assay: Cytotoxicity against human K562 cells assessed as cell death at 10 uM after 72 hrs by propidium iodide/Triton-X100 dye based FACS analysis; conditions: k562, 72 h
K562-IMA[r] [8] = assay: Cytotoxicity against imatinib-resistant human K562-IMA[r] cells assessed as induction of cell death at 10 uM after 72 hrs by propidium iodide/Triton-X100 dye based FACS analysis relative to control
K562-IMA[r] [9] = assay: Induction of sensitization to imatinib induced cytotoxicity in imatinib-resistant human K562-IMA[r] cells assessed as cell death up to 2.5 uM measured after 72 hrs in presence of 1 uM imatinib by propidium iodide/Triton-X100 dye based FACS analysis; type: functional
K562-IMA[r] [10] = assay: Induction of sensitization to imatinib-induced cytotoxicity in imatinib-resistant human K562-IMA[r] cells assessed as induction of cell death at 10 uM after 72 hrs in presence of 1 uM imatinib by propidium iodide/Triton-X100 dye based FACS analysis (reference value: 15%); type: functional
K562-IMA[r] [11] = assay: Induction of sensitization to imatinib-induced cytotoxicity in imatinib-resistant human K562-IMA[r] cells assessed as gain in cell death rate at 5 uM measured after 72 hrs in presence of 1 uM imatinib by propidium iodide/Triton-X100 dye based FACS analysis relative to imatinib-treated control; type: functional
K562-IMA[r] [12] = assay: Induction of sensitization to imatinib-induced cytotoxicity in imatinib-resistant human K562-IMA[r] cells assessed as induction of cell death measured after 72 hrs in presence of 1 uM imatinib by propidium iodide/Triton-X100 dye based FACS analysis; type: functional
[13] = molecular target: T1, Peroxisome proliferator-activated receptor gamma (Homo sapiens); assay: Transactivation of Gal4-fused human PPARgamma transfected in COS7 cells co-transfected with pGAL5-TK-pGL3 and pRennilla-CMV at 20 uM incubated for 39 hrs by dual luciferase reporter assay; type: cell-based
[14] = molecular target: T2, Peroxisome proliferator-activated receptor gamma (Homo sapiens, UniProt P37231); assay: Transactivation of Gal4-fused human PPARgamma transfected in COS7 cells co-transfected with pGAL5-TK-pGL3 and pRennilla-CMV incubated for 39 hrs by dual luciferase reporter assay; type: cell-based
T2 sequence (P37231 whole entry): T1 sequence (whole entry)

Row | SMILES | solubility [1] | solubility [2] | Activity [3] | Activity (K562-IMA[r] [4]) | Activity (K562-IMA[r] [5]) | Activity (COS-7) | Intrinsic activity [6] [%] | Intrinsic activity [7] | Activity (K562) | Activity (K562-IMA[r] [8]) [%] | Activity (K562-IMA[r] [9]) | Activity (K562-IMA[r] [10]) | Activity (K562-IMA[r] [11]) [%] | Activity (K562-IMA[r] [12]) | Activity [13] | EC50 [14] [µM]
1 | CCCc1nc2c(OC)cccc2n1Cc1ccc(-c2ccccc2C(N)=O)cc1 | Insoluble | Soluble | Non-Toxic | Non-Toxic | Active | Non-Toxic | 13.3 | inactive | Non-Toxic |  |  |  |  |  |  | 
2 | CCCc1nc2c(C(F)(F)F)cccc2n1Cc1ccc(-c2ccccc2C(N)=O)cc1 | Insoluble | Soluble | Non-Toxic |  |  | Non-Toxic | 19.5 | inactive | Non-Toxic | < 20 | inactive | 62 - 78% | 7.1 | Dose-dependent effect |  | 
3 | CCCc1nc2c([N+](=O)[O-])cccc2n1Cc1ccc(-c2ccccc2C(N)=O)cc1 | Insoluble | Soluble | Non-Toxic | Non-Toxic | Active | Non-Toxic | 7.15 | inactive | Non-Toxic |  |  |  |  |  |  | 
4 | CCCc1nc2c(O)cccc2n1Cc1ccc(-c2ccccc2C(=O)O)cc1 |  | Soluble | Non-Toxic | Non-Toxic | Active | Non-Toxic | 14.4 |  | Non-Toxic |  |  |  |  |  |  | 
5 | CCCc1nc2ccccc2n1Cc1ccc(-c2ccccc2C(=O)O)cc1 |  | Soluble | Non-Toxic | Non-Toxic | Active | Non-Toxic | 58.5 |  | Non-Toxic |  |  |  |  |  | Active | 7.22
6 | CCCc1nc2c([N+](=O)[O-])cccc2n1Cc1ccc(-c2ccccc2C(=O)O)cc1 |  | Soluble | Non-Toxic | Non-Toxic | Active | Non-Toxic | 0.42 |  | Non-Toxic |  |  |  |  |  |  | 
7 | CCCc1nc2c(C)cccc2n1Cc1ccc(-c2ccccc2C(N)=O)cc1 | Insoluble | Soluble | Non-Toxic |  |  | Non-Toxic | 19.6 | inactive | Non-Toxic | < 20 | inactive | 62 - 78% | 11.2 | Dose-dependent effect |  | 
8 | CCCc1nc2c(Cl)cccc2n1Cc1ccc(-c2ccccc2C(=O)O)cc1 |  | Soluble | Non-Toxic | Non-Toxic | Active | Non-Toxic | 44 |  | Non-Toxic |  |  |  |  |  | Active | 8.67
9 | CCCc1nc2c(OC)cccc2n1Cc1ccc(-c2ccccc2C(=O)O)cc1 |  | Soluble | Non-Toxic | Non-Toxic | Active | Non-Toxic | 17.9 |  | Non-Toxic |  |  |  |  |  |  | 
10 | CCCc1nc2c(Br)cccc2n1Cc1ccc(-c2ccccc2C(=O)O)cc1 |  | Soluble | Non-Toxic | Non-Toxic | Active | Non-Toxic | 44.9 |  | Non-Toxic |  |  |  |  |  | Active | 8.25
11 | CCCc1nc2c(C)cccc2n1Cc1ccc(-c2ccccc2C(=O)O)cc1 |  | Soluble | Non-Toxic | Non-Toxic | Active | Non-Toxic | 54.3 |  | Non-Toxic |  |  |  |  |  |  | 11.1
12 | CCCc1nc2c(N)cccc2n1Cc1ccc(-c2ccccc2C(N)=O)cc1 | Insoluble | Soluble | Non-Toxic | Non-Toxic | Active | Non-Toxic | 25.1 | inactive | Non-Toxic |  |  |  |  |  |  | 
13 | CCCc1nc2c(Cl)cccc2n1Cc1ccc(-c2ccccc2C(N)=O)cc1 | Insoluble | Soluble | Non-Toxic |  |  | Non-Toxic | 21.1 | inactive | Non-Toxic | < 20 | inactive | 62 - 78% | 15.3 | Dose-dependent effect |  | 
14 | CCCc1nc2c(O)cccc2n1Cc1ccc(-c2ccccc2C(N)=O)cc1 | Insoluble | Soluble | Non-Toxic | Non-Toxic | Active | Non-Toxic | 20.5 | inactive | Non-Toxic |  |  |  |  |  |  | 
15 | CCCc1nc2c(F)cccc2n1Cc1ccc(-c2ccccc2C(N)=O)cc1 | Insoluble | Soluble | Non-Toxic |  |  | Non-Toxic | 33.3 | inactive | Non-Toxic | < 20 | inactive | 62 - 78% | 8.1 | Dose-dependent effect |  | 
16 | CCCc1nc2c(N)cccc2n1Cc1ccc(-c2ccccc2C(=O)O)cc1 |  | Soluble | Non-Toxic | Non-Toxic | Active | Non-Toxic | 15.7 |  | Non-Toxic |  |  |  |  |  |  | 
17 | CCCc1nc2c(C(F)(F)F)cccc2n1Cc1ccc(-c2ccccc2C(=O)O)cc1 |  | Soluble | Non-Toxic | Non-Toxic | Active | Non-Toxic | 29.5 |  | Non-Toxic |  |  |  |  |  |  | 12.1
18 | CCCc1nc2c(C)cc(-c3nc4ccccc4n3C)cc2n1Cc1ccc(-c2ccccc2C(=O)O)cc1 [TELMISARTAN] |  |  |  |  | Active |  | 59.1 | 78% |  |  |  |  |  |  |  | 4.28
19 | CCCc1nc2c(F)cccc2n1Cc1ccc(-c2ccccc2C(=O)O)cc1 |  | Soluble | Non-Toxic | Non-Toxic | Active | Non-Toxic | 44.2 |  | Non-Toxic |  |  |  |  |  | Active | 8.66
